According to BigSolDB 2.1:

For `N[C@@H](C(=O)N[C@@H]1C(=O)N2C(C(=O)O)=C(Cl)CS[C@H]12)c1ccccc1.O`, which solubility (mole fraction) (in acetone, 278.15 K) is on record?
The solubility (mole fraction) was 2.05e-05.

And the solubility (mole fraction) (in acetone, 283.15 K)?
The solubility (mole fraction) was 2.67e-05.

And the solubility (mole fraction) (in acetone, 288.15 K)?
Its solubility (mole fraction) is 3.43e-05.

And the solubility (mole fraction) (in acetone, 293.15 K)?
Its solubility (mole fraction) is 4.35e-05.

And the solubility (mole fraction) (in acetone, 298.15 K)?
Its solubility (mole fraction) is 5.48e-05.

And the solubility (mole fraction) (in acetone, 303.15 K)?
Its solubility (mole fraction) is 6.84e-05.

What about the solubility (mole fraction) (in acetone, 308.15 K) of the same molecule?
The solubility (mole fraction) was 8.57e-05.

And the solubility (mole fraction) (in acetone, 313.15 K)?
The solubility (mole fraction) was 0.000108.

What about the solubility (mole fraction) (in ethanol, 278.15 K) of the same molecule?
Its solubility (mole fraction) is 2.36e-05.

What about the solubility (mole fraction) (in ethanol, 283.15 K) of the same molecule?
Its solubility (mole fraction) is 3.05e-05.

What about the solubility (mole fraction) (in ethanol, 288.15 K) of the same molecule?
Its solubility (mole fraction) is 3.86e-05.

And the solubility (mole fraction) (in ethanol, 293.15 K)?
The solubility (mole fraction) was 4.76e-05.

And the solubility (mole fraction) (in ethanol, 298.15 K)?
The solubility (mole fraction) was 5.71e-05.

What about the solubility (mole fraction) (in ethanol, 303.15 K) of the same molecule?
Its solubility (mole fraction) is 6.72e-05.

And the solubility (mole fraction) (in ethanol, 308.15 K)?
Its solubility (mole fraction) is 7.92e-05.

What about the solubility (mole fraction) (in ethanol, 313.15 K) of the same molecule?
The solubility (mole fraction) was 9.55e-05.

What about the solubility (mole fraction) (in methanol, 278.15 K) of the same molecule?
Its solubility (mole fraction) is 8.68e-05.

What about the solubility (mole fraction) (in methanol, 283.15 K) of the same molecule?
The solubility (mole fraction) was 0.000101.

What about the solubility (mole fraction) (in methanol, 288.15 K) of the same molecule?
Its solubility (mole fraction) is 0.000115.

What about the solubility (mole fraction) (in methanol, 293.15 K) of the same molecule?
Its solubility (mole fraction) is 0.000129.

And the solubility (mole fraction) (in methanol, 298.15 K)?
Its solubility (mole fraction) is 0.000145.

And the solubility (mole fraction) (in methanol, 303.15 K)?
Its solubility (mole fraction) is 0.000163.

And the solubility (mole fraction) (in methanol, 308.15 K)?
Its solubility (mole fraction) is 0.000186.

And the solubility (mole fraction) (in methanol, 313.15 K)?
Its solubility (mole fraction) is 0.000214.

What about the solubility (mole fraction) (in water, 278.15 K) of the same molecule?
The solubility (mole fraction) was 0.000387.

What about the solubility (mole fraction) (in water, 283.15 K) of the same molecule?
The solubility (mole fraction) was 0.000401.

And the solubility (mole fraction) (in water, 288.15 K)?
Its solubility (mole fraction) is 0.000417.

And the solubility (mole fraction) (in water, 293.15 K)?
The solubility (mole fraction) was 0.000445.

What about the solubility (mole fraction) (in water, 298.15 K) of the same molecule?
Its solubility (mole fraction) is 0.000476.

And the solubility (mole fraction) (in water, 303.15 K)?
The solubility (mole fraction) was 0.000511.

What about the solubility (mole fraction) (in water, 308.15 K) of the same molecule?
The solubility (mole fraction) was 0.000551.

What about the solubility (mole fraction) (in water, 313.15 K) of the same molecule?
The solubility (mole fraction) was 0.000602.
